Data on six molecules can be found in patent publication US4186136A, “Novel benzothienyl amino (propyl and butyl) ketones, a method of preparation thereof and their application to therapeutics” (priority 1975, dated 1980).

The test system of data set [1] is human blood-plaques (aggregation with collagene). The data set is described as follows: Inhibition of blood-plaque aggregation induced by collagene. The class given is cell-based. As to conditions: for Ratio of a (X) to a (R), COLLAGENE (head drawn): X 2×10^-5 g/ml, R 2×10^-4 g/ml; for inhibition at 20 µg/mL: Homo sapiens, read-out: Inhibitory activity of the blood-plaque aggregation, COLLAGENE, a (X). The text has this: (§1) The blood plaques used for these studies were human blood-plaques introduced into the test in the form of blood-plaque rich plasmas (B.P.R.P.).
(§2) These latter were obtained as water-repellent material by slow centrifugation from human blood samples.
(§3) The study of blood-plaque aggregation was made by means of an aggregate-meter with continuous agitation and graphic recording according to the conventional method. (PROST R. S., SOUVERAIN C. H., DOUMENC J., Etude de l'agregation plaquettaire a l'aide de l'agregametre de MUSTARD-Coagulation, 1971, 4, 2, 145-151).
(§4) The agents employed for inducing aggregation were diphosphoric adenosine acid (D.P.A.), 1-(3',4'-di-hydroxyphenyl)-2-methylamino ethanol (adrenaline) and collagene. All these reactants were prepared from mother solutions diluted in a Michaelis' buffer. Their concentration in the test may vary according to the affinity of the blood-plaques.
(§5) An optimum concentration is thus sought by successive tests on the same B.P.R.P.
(§6) The inhibitory activity on the aggregation was evaluated by addition of the product under study to the B.P.R.P. before introduction of the aggregating agent.
(§7) The concentrations of compounds of formula I (X) in the B.P.R.P. are: C (X)=2.5×10^-5 g/ml for aggregation with D.P.A. and adrenaline, and C (X)=2×10^-5 g/ml for collagene.
(§8) The reference product (R) is 2,6-bis (diethanolamino)-4,8-dipiperidinopyrimido[5,4-d]pyramidine (known under the trademark "Dipyridamole") used in the concentration C (R)=5×10^-4 g/ml for aggregation with D.P.A. and adrenaline and C (R)=2×10^-4 g/ml for aggregation with collagene.
(§9) The following table IV indicates the activity of some compounds of formula I: a (X) the activity of the reference product: a (R) and the different values of the ratio: [formula]

For data set [2], the system named is phenylparaquinone (P.P.Q.) painful syndrome in a mouse. Briefly: Analgesic and anti-inflammatory activity, phenylparaquinone (P.P.Q.) painful syndrome. Type of data set: in vivo. As to conditions: for Analgesic and anti-inflammatory activity, percentage activity a(X): 50 mg/kg digestively, crises between 10 and 15 minutes; for a(X) / a(R), analgesic and anti-inflammatory activity: X 50 mg/kg, R (Galfenine) 25 mg/kg. Here is the method: The intraperitoneal injection of phenylparaquinone (P.P.Q.) in a mouse causes the appearance of a painful syndrome appearing within 5 minutes of the injection and disappearing after about 30 minutes (SIEGMUND E. A., CADMUS A., LU G., J. Pharmacol. Exp. Therap. 1957, 119, 453). This painful syndrome manifests itself in the animal by a series of characteristic crises, more or less close together and fleeting, during which we can note a twisting or stretching of the body, a hollowing of the sides and a stretching of the hind legs.
It is therefore possible to note the number of crises in a given interval of time.
The preventive administration of analgesic or anti-inflammatory substances prevents the appearance of crises or reduces the frequency thereof.
The reference substance (R) used in the tests was the ester of N-(7-chloro-4 quinolyl) anthranilic acid and 2,3-dihydroxy n.propanol (known under the trademark Galfenine).
It was administered orally with a dose of 25 mg/kg.
The compounds of formula I (X) were administered digestively with a dose of 50 mg/kg.
The interval of time (t) which was chosen to evaluate the analgesic activity was between 10 and 15 minutes which is the period of maximum frequency of the crises. This activity was expressed in the following way:
n: number of crises observed in the control mice;
n': number of crises observed in mice previously treated with the reference substance (R);
n": number of crises observed in mice having received the substance (X).
The percentage activity of R is equal to [formula]
The percentage activity of X is equal to [formula]
The activity of X in relation to that of R is estimated by the ratio [formula]
For example: a compound X for which [formula] is 0.5 has an activity equal to half that of the reference product.

The next data set relates to mouse. Briefly: Acute toxicity, oral, mouse (LD 50, Miller and Tainter). Type of data set: in vivo. The following applies: death rate checked for seven days, 10080 min. Here is the method: (§10) The acute toxicity of the compounds of formula (I) were evaluated orally (esophagean probe) on a mouse deprived of food 18 hours before the beginning of the test. The products were placed in suspension in a solution of dilute carboxymethyl cellulose. Calculation of the 50 lethal dose (LD 50) was effected according to the method of Miller and Tainter (Miller L. C., Tainter M. L., Proc. Soc. Exptl. Biol. Med. 1944, 57, 261-264).
(§11) The death rate was checked for seven days following the treatment.
(§12) Table III gives the 50% lethal doses (LD 50) in milligrammes per kilogramme body weight.

In data set [3] the test system is human blood-plaques (aggregation with adrenaline). Briefly: Inhibition of blood-plaque aggregation induced by adrenaline. As to conditions: for Ratio of a (X) to a (R), ADRENALINE (head drawn): X 2.5×10^-5 g/ml, R 5×10^-4 g/ml; for inhibition at 25 µg/mL: Homo sapiens, read-out: Inhibitory activity of the blood-plaque aggregation, ADRENALINE, a (X). The class given is cell-based.
Source text: as §1, §2, §3, §4, §5, §6, §7, §8, §9

The subject of data set [4] is isolated heart of a gumea-pig. The data set is described as follows: Vaso-dilatatory activity, coronary flow of isolated perfused heart. The following applies: for activation at 10 µg/mL: 1×10^-5 g/ml, coronary flow at climax of activity, Locke, 37° C., read-out: Percentage flow increase P (X); for P (X) / P (R): relative to Dipyridamole, both 1×10^-5 g/ml. Here is the method:
The coronary flow is recorded, by means of an electronic device fitted with a Fleish totaliser, before and after addition of the substance X under study (concentration: 1×10^-5 g/ml), the reference product (R) being 2,6-bis (diethanolamino) 4,8-dipiperidinopyrimido[5,4-d]pyrimidine (known under the trademark "Dipyridamole") used at a concentration of 1×10^-5 g/ml.
The percentage flow increase P was calculated at the climax of the activity of X or R.

The test system of the next data set is rat's isolated duodenum. Briefly: Spasmolytic activity on isolated duodenum contracted by barium chloride (Magnus). The following applies: for ED 50 (R) / ED 50 (X): relative to papaverine hydrochloride; for IC50: Rattus norvegicus, barium chloride contraction, Tyrode, 38° C., read-out: Spasmolytic activity ED 50 (X). Here is the method:
The spasmolytic activity was studied on a rat's isolated duodenum maintained in a survival medium of an aerated Tyrode solution heated to 38° C. according to the technique of Magnus (Magnus R.-Archivs ges. Physiol., 1905, 180, 1-71).
The contracting agent used was barium chloride, the reference antogonist agent being papaverine hydrochloride (R). The average activity of the compounds of formula I (X) in comparison with that of the reference agent was expressed by calculating the ratio of the 50 efficient doses (ED 50) determined graphically on logarithmic paper: [formula]
For example: a substance having a relative activity expressed by the FIG. 2 presents an activity equal to twice that of papaverine hydrochloride.

Data set [5] concerns human blood-plaques (aggregation with D.P.A.). The data set is described as follows: Inhibition of blood-plaque aggregation induced by D.P.A. As to conditions: for Ratio of a (X) to a (R), D.P.A. (head drawn): X 2.5×10^-5 g/ml, R 5×10^-4 g/ml; for inhibition at 25 µg/mL: Homo sapiens, read-out: Inhibitory activity of the blood-plaque aggregation, D.P.A., a (X). The class given is cell-based.
Source text: as §1, §2, §3, §4, §5, §6, §7, §8, §9

The nature of data set [6]: Acute toxicity, oral, mouse (LD 50, Miller and Tainter). Type of data set: in vivo. As to conditions: in vivo, po, death rate checked for seven days, read-out: 50% lethal dose (LD 50) (converted). Here is the method:
as §10, §11, §12

The next data set concerns human blood-plaques. Briefly: Blood-plaque aggregation inhibition (all inducers, overall statement). The class given is cell-based. As to conditions: compared with reference product, taking the ratio into account.
Source text: as §1, §2, §3, §4, §5, §6
The concentrations of compounds of formula I (X) in the B.P.R.P. are: C (X)=2.5×10^-5 g/ml for aggregation with D.P.A. and adrenaline, and C (X)=2×10^-5 g/ml for collagene. […]

≈ marks a conversion by molar mass, not a printed value. Counter-ions that a name gives are not always drawn.

Regarding `O=C(CCCN1CCOCC1)c1cc2ccccc2s1` [Compound 2, 1-(benzothien-2'-yl)-4-N-morpholino butanone hydrochloride], in data set [1] (C (X)=2×10^-5 g/ml, hydrochloride), the “Inhibitory activity of the blood-plaque aggregation, COLLAGENE, a (X)” value was 12%. Besides, the “Ratio of a (X) to a (R), COLLAGENE (head drawn)” value (from here on “Ratio … COLLAGENE (head drawn)”) in data set [1] (hydrochloride) was 3.3×10^-1. In data set [2] (hydrochloride), the “Analgesic and anti-inflammatory activity, percentage activity a(X)” value is 38%; the “a(X) / a(R), analgesic and anti-inflammatory activity” value is 5 × 10^-1. For the same molecule, the “50% lethal dose (LD 50)” value with mouse (hydrochloride) is 1 500 mg/kg/p.o. Also, the “Inhibitory activity of the blood-plaque aggregation, ADRENALINE, a (X)” value in data set [3] (C (X)=2.5×10^-5 g/ml, hydrochloride) is on record as 15%. Besides, the “Ratio of a (X) to a (R), ADRENALINE (head drawn)” value (shortened to “Ratio … ADRENALINE (head drawn)”) in data set [3] (hydrochloride) is listed as 1.65×10^-1.
As for `CCN(CC)CCCC(=O)c1csc2ccccc12` [Compound 10], in data set [4], the activation at 10 µg/mL was 60% and the “P (X) / P (R)” value was found to be 1.4. Further, in the data set on mouse, the “50% lethal dose (LD 50)” value was 1 100 mg/kg/p.o. For the same molecule, the “ED 50 (R) / ED 50 (X)” value with rat's isolated duodenum is 1.05.
For `CCCN(CCC)CCCC(=O)c1csc2ccccc12` [Compound 11], the “Ratio of a (X) to a (R), D.P.A. (head drawn)” value in data set [5] is on record as 1.8×10^-1. Further, the inhibition at 25 µg/mL in data set [5] (C (X)=2.5×10^-5 g/ml) came to 10%. In [4], the activation at 10 µg/mL amounted to 41% and the “P (X) / P (R)” value is listed as 7.75 × 10^-1. In [1] (C (X)=2×10^-5 g/ml), the inhibition at 20 µg/mL came to 12%. In [1], the “Ratio … COLLAGENE (head drawn)” value is given as 3.3×10^-1. In [2], the “Analgesic and anti-inflammatory activity, percentage activity a(X)” value is on record as 48%; the “a(X) / a(R), analgesic and anti-inflammatory activity” value is listed as 6.5 × 10^-1. In data set [6], the LD50 at 168 h is 1100 mg/kg. Moreover, in the data set with rat's isolated duodenum, the IC50 was 1.05 µg/mL (≈ 3.46 µM) and the “ED 50 (R) / ED 50 (X)” value turned out to be 6.2. Besides, the inhibition at 25 µg/mL in [3] (C (X)=2.5×10^-5 g/ml) is 51%. Moreover, the “Ratio … ADRENALINE (head drawn)” value in [3] was 5.8×10^-1.
Take `CC(C)N(CCCC(=O)c1csc2ccccc12)C(C)C` [Compound 12]: the inhibition at 25 µg/mL in data set [5] (C (X)=2.5×10^-5 g/ml) was 29%. In data set [4], the activation at 10 µg/mL worked out at 33% and the “P (X) / P (R)” value is reported as 6.25 × 10^-1. Further, the inhibition at 20 µg/mL in [1] (C (X)=2×10^-5 g/ml) was 12%. Further, the “Ratio … COLLAGENE (head drawn)” value in data set [1] was 2.3×10^-1. In data set [2], the “Analgesic and anti-inflammatory activity, percentage activity a(X)” value is 68%; the “a(X) / a(R), analgesic and anti-inflammatory activity” value is listed as 1.5. Further, the LD50 at 168 h in data set [6] is 500 mg/kg. Moreover, in the data set on rat's isolated duodenum, the IC50 was 1.35 µg/mL (≈ 4.45 µM) and the “ED 50 (R) / ED 50 (X)” value is on record as 4.8. Also, the inhibition at 25 µg/mL in [3] (C (X)=2.5×10^-5 g/ml) worked out at 80%. Moreover, the “Ratio … ADRENALINE (head drawn)” value in data set [3] is 9.1×10^-1.
Consider `O=C(CCCN1CCCCCC1)c1csc2ccccc12` [Compound 16], for which the “Inhibitory activity of the blood-plaque aggregation, D.P.A., a (X)” value in data set [5] (C (X)=2.5×10^-5 g/ml) came out at 47%. For the same molecule, in data set [5], the “Ratio of a (X) to a (R), D.P.A. (head drawn)” value is given as 5.5×10^-1. For the same molecule, the inhibition at 20 µg/mL in data set [1] (C (X)=2×10^-5 g/ml) turned out to be 92%. Besides, in [1], the “Ratio … COLLAGENE (head drawn)” value amounted to 2.5. Also, in data set [2], the “Analgesic and anti-inflammatory activity, percentage activity a(X)” value was 44%; the “a(X) / a(R), analgesic and anti-inflammatory activity” value is given as 5.9 × 10^-1. Besides, in the data set on mouse, the “50% lethal dose (LD 50)” value is on record as 1 200 mg/kg/p.o. The “ED 50 (R) / ED 50 (X)” value in the data set with rat's isolated duodenum is 2.7.
On to `O=C(CCCN1CCOCC1)c1csc2ccccc12` [Compound 17], for which the “Inhibitory activity on the blood-plaque aggregation (in words)” value with human blood-plaques is recorded as “substantially superior”. Besides, in data set [2], the “Analgesic and anti-inflammatory activity, percentage activity a(X)” value stood at 55%; the “a(X) / a(R), analgesic and anti-inflammatory activity” value is on record as 1.2. For the same molecule, in data set [6], the LD50 at 168 h is 1000 mg/kg. Besides, in the data set with rat's isolated duodenum, the IC50 was determined as 2.15 µg/mL (≈ 7.43 µM) and the “ED 50 (R) / ED 50 (X)” value is on record as 3.4.
